From PMC2248166, “Quantitative peptide binding motifs for 19 human and mouse MHC class I molecules derived using positional scanning combinatorial peptide libraries” (Immunome Research, 2008)
Where a SMILES comes first, the peptide text is derived from it.

Target: HLA A*3001 (Homo sapiens, UniProt P04439, D140H/D185E/E176W/F33S/G80R/H175R/K168Q/R138E/R41S)
Experiment: biochemical
Format: binding

HLA A*3001, sequence (P04439 25-365 limits assumed, stated change not applied): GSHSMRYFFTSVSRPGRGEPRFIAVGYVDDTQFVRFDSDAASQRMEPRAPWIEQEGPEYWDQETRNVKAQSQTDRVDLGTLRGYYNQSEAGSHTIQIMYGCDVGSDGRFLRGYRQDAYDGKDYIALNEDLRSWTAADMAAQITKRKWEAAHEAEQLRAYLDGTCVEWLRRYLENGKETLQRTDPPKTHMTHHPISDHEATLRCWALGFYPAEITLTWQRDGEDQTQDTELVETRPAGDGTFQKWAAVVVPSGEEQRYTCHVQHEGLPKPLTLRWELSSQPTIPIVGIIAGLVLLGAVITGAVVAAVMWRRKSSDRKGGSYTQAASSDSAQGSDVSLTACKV

Row | SMILES | IC50
1 | CC[C@H](C)[C@H](NC(=O)[C@H](CC(C)C)NC(=O)[C@H](CO)NC(=O)CNC(=O)[C@@H]1CCCN1C(=O)[C@H](CCCNC(=N)N)NC(=O)[C@H](Cc1ccccc1)NC(=O)[C@@H](N)CCCCN)C(=O)N[C@@H](Cc1ccc(O)cc1)C(=O)O [3102.0230] (H-KFRPGSLIY-OH) | 0.3 nM
2 | CSCC[C@H](NC(=O)[C@@H](N)CCCCN)C(=O)N[C@@H](CCCNC(=N)N)C(=O)N[C@@H](CCCNC(=N)N)C(=O)N[C@@H](CCC(=O)O)C(=O)N[C@@H](CCCNC(=N)N)C(=O)N[C@@H](C)C(=O)N[C@@H](C)C(=O)N[C@@H](Cc1ccc(O)cc1)C(=O)O [3102.0231] (H-KMRRERAAY-OH) | 3 nM
3 | CSCC[C@H](N)C(=O)N[C@@H](CCCNC(=N)N)C(=O)N[C@@H](CCCNC(=N)N)C(=O)N[C@@H](CCC(=O)O)C(=O)N[C@@H](CCCNC(=N)N)C(=O)N[C@@H](C)C(=O)N[C@@H](C)C(=O)N[C@@H](Cc1ccc(O)cc1)C(=O)N[C@H](C(=O)O)C(C)C [3102.0232] (H-MRRERAAYV-OH) | 22 nM
4 | CC(C)C[C@H](NC(=O)[C@H](CCC(=O)O)NC(=O)[C@H](CCCNC(=N)N)NC(=O)[C@H](CCCCN)NC(=O)[C@H](Cc1ccc(O)cc1)NC(=O)[C@H](Cc1ccccc1)NC(=O)[C@H](CCCCN)NC(=O)[C@@H](NC(=O)[C@@H](N)CCCCN)C(C)C)C(=O)O [3102.0235] (H-KVKFYKREL-OH) | 42 nM
5 | CC[C@H](C)[C@H](NC(=O)[C@H](CCCNC(=N)N)NC(=O)[C@@H](NC(=O)[C@@H](N)CCCCN)[C@@H](C)O)C(=O)N[C@@H](CCCNC(=N)N)C(=O)N[C@@H](CC(N)=O)C(=O)N[C@@H](CC(C)C)C(=O)N[C@@H](CCCCN)C(=O)N[C@@H](CCCNC(=N)N)C(=O)O [3102.0236] (H-KTRIRNLKR-OH) | 6.5 nM
6 | CC[C@H](C)[C@H](NC(=O)[C@H](CCC(N)=O)NC(=O)[C@H](CCC(=O)O)NC(=O)[C@H](CCCNC(=N)N)NC(=O)[C@H](C)NC(=O)[C@@H](N)CCCNC(=N)N)C(=O)N[C@@H](CO)C(=O)N[C@@H](CC(N)=O)C(=O)N[C@@H](CC(C)C)C(=O)O [3102.0237] (H-RAREQISNL-OH) | 2.7 nM
7 | CC(C)C[C@H](NC(=O)[C@H](CC(=O)O)NC(=O)[C@H](CCCCN)NC(=O)[C@@H](NC(=O)[C@@H](N)CCCCN)C(C)C)C(=O)N[C@@H](Cc1ccccc1)C(=O)N[C@@H](CC(N)=O)C(=O)N[C@H](C(=O)N[C@@H](CCCCN)C(=O)O)[C@@H](C)O [3102.0238] (H-KVKDLFNTK-OH) | 38 nM
8 | CC[C@H](C)[C@H](NC(=O)[C@@H](NC(=O)[C@@H](NC(=O)[C@H](CCCCN)NC(=O)[C@H](C)NC(=O)[C@@H](N)CCCCN)[C@@H](C)O)[C@@H](C)O)C(=O)N[C@@H](CO)C(=O)N[C@@H](CC(N)=O)C(=O)N[C@@H](Cc1ccc(O)cc1)C(=O)O [3102.0241] (H-KAKTTISNY-OH) | 24 nM
9 | CC(C)C[C@H](NC(=O)[C@H](CC(N)=O)NC(=O)[C@@H](NC(=O)[C@H](CC(C)C)NC(=O)[C@H](CCCNC(=N)N)NC(=O)[C@H](CCC(N)=O)NC(=O)[C@@H](N)CCCCN)[C@@H](C)O)C(=O)N[C@@H](CCC(=O)O)C(=O)N[C@@H](CCCCN)C(=O)O [3102.0243] (H-KQRLTNLEK-OH) | 0.95 nM
10 | CC[C@H](C)[C@H](NC(=O)[C@H](CCSC)NC(=O)[C@H](C)NC(=O)[C@H](C)NC(=O)[C@H](CCCNC(=N)N)NC(=O)[C@H](CC(C)C)NC(=O)[C@@H](N)[C@@H](C)O)C(=O)N[C@@H](CO)C(=O)N[C@@H](CC(C)C)C(=O)O [3102.0245] (H-TLRAAMISL-OH) | 0.71 nM
11 | CC[C@H](C)[C@H](NC(=O)[C@H](CC(C)C)NC(=O)[C@H](CO)NC(=O)[C@@H](NC(=O)[C@H](CCCNC(=N)N)NC(=O)[C@@H](NC(=O)[C@@H](N)CCCNC(=N)N)C(C)C)[C@@H](C)CC)C(=O)N[C@@H](Cc1ccc(O)cc1)C(=O)N[C@@H](CC(C)C)C(=O)O [3102.0249] (H-RVRISLIYL-OH) | 0.092 nM
12 | CC(C)C[C@H](NC(=O)[C@H](CO)NC(=O)[C@H](Cc1c[nH]cn1)NC(=O)[C@H](CC(C)C)NC(=O)[C@H](CCCNC(=N)N)NC(=O)[C@H](C)NC(=O)[C@H](CO)NC(=O)[C@@H](NC(=O)[C@@H](N)Cc1c[nH]cn1)[C@@H](C)O)C(=O)O [3102.0250] (H-HTSARLHSL-OH) | 4.1 nM
13 | C[C@@H](O)[C@H](N)C(=O)N[C@H](C(=O)N[C@@H](CCCCN)C(=O)N[C@@H](CC(N)=O)C(=O)NCC(=O)N[C@@H](CCC(N)=O)C(=O)N1CCC[C@H]1C(=O)N[C@@H](CCCNC(=N)N)C(=O)N[C@@H](CCCCN)C(=O)O)[C@@H](C)O [3102.0252] (H-TTKNGQPRK-OH) | 0.23 nM
14 | CC[C@H](C)[C@H](NC(=O)[C@H](CC(N)=O)NC(=O)[C@H](CO)NC(=O)[C@H](CCSC)NC(=O)[C@H](CC(C)C)NC(=O)[C@H](CCCCN)NC(=O)[C@@H](NC(=O)[C@@H](N)CCCNC(=N)N)[C@@H](C)O)C(=O)N[C@@H](CCCCN)C(=O)O [3102.0253] (H-RTKLMSNIK-OH) | 0.38 nM
15 | CC[C@H](C)[C@H](NC(=O)[C@H](CCSC)NC(=O)[C@H](CCSC)NC(=O)[C@@H](NC(=O)[C@@H](N)CCCCN)[C@@H](C)O)C(=O)N[C@@H](CC(N)=O)C(=O)N1CCC[C@H]1C(=O)N[C@@H](Cc1ccccc1)C(=O)N[C@@H](CCSC)C(=O)O [3102.0254] (H-KTMMINPFM-OH) | 0.36 nM
16 | CC[C@H](C)[C@H](NC(=O)[C@@H](NC(=O)[C@H](CO)NC(=O)[C@@H](N)CCSC)C(C)C)C(=O)N[C@@H](CO)C(=O)N[C@@H](CC(N)=O)C(=O)N1CCC[C@H]1C(=O)N[C@@H](CO)C(=O)N[C@@H](CCCCN)C(=O)O [3102.0255] (H-MSVISNPSK-OH) | 20 nM
17 | CC(C)C[C@H](NC(=O)[C@H](CCCCN)NC(=O)[C@H](Cc1ccccc1)NC(=O)[C@@H](N)CCCCN)C(=O)N[C@H](C(=O)N[C@@H](CC(C)C)C(=O)N1CCC[C@H]1C(=O)N[C@@H](CC(N)=O)C(=O)N[C@@H](CCCCN)C(=O)O)[C@@H](C)O [3102.0261] (H-KFKLTLPNK-OH) | 12 nM
18 | CC(C)C[C@H](NC(=O)[C@H](CCCCN)NC(=O)[C@H](CCCCN)NC(=O)[C@@H](NC(=O)[C@@H](N)CCCCN)C(C)C)C(=O)N[C@@H](CC(N)=O)C(=O)N[C@@H](CCCNC(=N)N)C(=O)N[C@@H](CS)C(=O)N[C@@H](C)C(=O)O [3102.0262] (H-KVKKLNRCA-OH) | 3.1 nM
19 | CSCC[C@H](NC(=O)[C@H](Cc1ccccc1)NC(=O)[C@H](CCCCN)NC(=O)[C@H](CCCNC(=N)N)NC(=O)[C@H](CO)NC(=O)[C@@H](N)CCSC)C(=O)N[C@@H](CCC(N)=O)C(=O)N[C@H](C(=O)N[C@@H](Cc1ccc(O)cc1)C(=O)O)C(C)C [3102.0264] (H-MSRKFMQVY-OH) | 1.5 nM
20 | CC(C)C[C@H](NC(=O)[C@@H](NC(=O)[C@H](CS)NC(=O)[C@H](C)NC(=O)[C@H](Cc1ccccc1)NC(=O)[C@H](CCCCN)NC(=O)[C@H](CO)NC(=O)[C@@H](N)CO)C(C)C)C(=O)N[C@@H](CCCCN)C(=O)O [3102.0265] (H-SSKFACVLK-OH) | 9.9 nM
21 | C[C@H](NC(=O)[C@H](CCCNC(=N)N)NC(=O)[C@H](CC(N)=O)NC(=O)[C@H](CCC(N)=O)NC(=O)[C@H](Cc1ccccc1)NC(=O)[C@H](CCCCN)NC(=O)[C@@H](NC(=O)[C@@H](N)CCCNC(=N)N)[C@@H](C)O)C(=O)N[C@@H](CCCCN)C(=O)O [3102.0266] (H-RTKFQNRAK-OH) | 0.16 nM
22 | CC[C@H](C)[C@H](NC(=O)[C@H](CCCCN)NC(=O)[C@H](Cc1c[nH]cn1)NC(=O)[C@@H](N)CCCCN)C(=O)N[C@@H](Cc1ccccc1)C(=O)N[C@@H](CO)C(=O)N1CCC[C@H]1C(=O)N[C@@H](Cc1ccccc1)C(=O)N[C@@H](CCCCN)C(=O)O [3102.0267] (H-KHKIFSPFK-OH) | 0.89 nM
23 | CSCC[C@H](NC(=O)[C@H](CCCNC(=N)N)NC(=O)[C@H](Cc1ccc(O)cc1)NC(=O)[C@@H](N)CCCNC(=N)N)C(=O)N[C@@H](Cc1c[nH]cn1)C(=O)N1CCC[C@H]1C(=O)N[C@@H](CCSC)C(=O)N[C@@H](CO)C(=O)N[C@@H](CCCCN)C(=O)O [3102.0268] (H-RYRMHPMSK-OH) | 0.068 nM
24 | CC[C@H](C)[C@H](NC(=O)[C@H](CCC(N)=O)NC(=O)[C@@H](NC(=O)[C@@H](NC(=O)[C@H](C)NC(=O)[C@H](CCCCN)NC(=O)[C@@H](NC(=O)[C@@H](N)[C@@H](C)O)[C@@H](C)O)[C@@H](C)O)[C@@H](C)O)C(=O)N[C@@H](C)C(=O)O [3102.0270] (H-TTKATTQIA-OH) | 6.5 nM
25 | CC(C)[C@H](NC(=O)[C@H](Cc1c[nH]cn1)NC(=O)[C@@H](NC(=O)[C@H](CC(=O)O)NC(=O)[C@H](CCCCN)NC(=O)[C@H](CO)NC(=O)[C@@H](N)CCCNC(=N)N)[C@@H](C)O)C(=O)N[C@@H](Cc1ccccc1)C(=O)N[C@@H](C)C(=O)O [3102.0271] (H-RSKDTHVFA-OH) | 0.019 nM
26 | CC[C@H](C)[C@H](NC(=O)[C@H](Cc1ccc(O)cc1)NC(=O)[C@@H](NC(=O)[C@@H](N)CCCCN)C(C)C)C(=O)NCC(=O)N[C@@H](Cc1ccc(O)cc1)C(=O)N[C@@H](CS)C(=O)N[C@@H](CCSC)C(=O)N[C@@H](C)C(=O)O [3102.0272] (H-KVYIGYCMA-OH) | 2.6 nM
27 | CC(C)C[C@H](N)C(=O)N[C@@H](C)C(=O)N[C@@H](CCCNC(=N)N)C(=O)N[C@@H](CCCNC(=N)N)C(=O)N1CCC[C@H]1C(=O)N[C@H](C(=O)N1CCC[C@H]1C(=O)N[C@@H](CCCCN)C(=O)N[C@@H](CCCCN)C(=O)O)[C@@H](C)O [3102.0275] (H-LARRPTPKK-OH) | 10 nM
28 | CC[C@H](C)[C@H](NC(=O)[C@H](CO)NC(=O)[C@H](CO)NC(=O)[C@H](CO)NC(=O)[C@H](CCCCN)NC(=O)[C@H](CCCNC(=N)N)NC(=O)[C@H](CO)NC(=O)CN)C(=O)N[C@@H](CC(C)C)C(=O)O [3102.0276] (H-GSRKSSSIL-OH) | 1.6 nM
29 | CSCC[C@H](NC(=O)[C@H](CCSC)NC(=O)[C@@H]1CCCN1C(=O)[C@@H](NC(=O)[C@@H](NC(=O)[C@H](CC(N)=O)NC(=O)[C@H](CCCNC(=N)N)NC(=O)[C@H](CO)NC(=O)[C@@H](N)CCCCN)[C@@H](C)O)[C@@H](C)O)C(=O)O [3102.0277] (H-KSRNTTPMM-OH) | 0.1 nM
30 | C[C@H](NC(=O)[C@H](CCCNC(=N)N)NC(=O)[C@H](Cc1ccccc1)NC(=O)[C@H](CCCCN)NC(=O)[C@@H]1CCCN1C(=O)[C@@H]1CCCN1C(=O)[C@H](CCCCN)NC(=O)[C@H](Cc1ccccc1)NC(=O)[C@@H](N)Cc1c[nH]cn1)C(=O)O [3102.0279] (H-HFKPPKFRA-OH) | 8.9 nM
